Experimental data as given in PubChem BioAssay AID192 (DTP/NCI, 2004).
Values joined by “and” are separate entries in the source; they are usually repeats but may differ in a detail not shown here. Equal entries are not always repeated. Toxic doses and inconclusive results are not listed.

Test system: BDF1 mice, B16 melanoma ip, median survival T/C
Test: NCI In Vivo Anticancer Drug Screen. Data for tumor model B16 Melanoma (intraperitoneal) in B6D2F1 (BDF1) mice
Conditions: endpoint: median survival time, higher = longer survival
Outline: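 Mice with transplantable tumors; drug vs vehicle groups; endpoint survival or tumor size; value = T/C.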

[1] = dose: 100.0 mg/kg/injection, schedule: Q01DX009 (ip), vehicle: Klucel (hydroxypropylcellulose) (HPC)
[2] = dose: 200.0 mg/kg/injection, schedule: Q01DX009 (ip), vehicle: Klucel (hydroxypropylcellulose) (HPC)
[3] = dose: 400.0 mg/kg/injection, schedule: Q01DX009 (ip), vehicle: saline with Tween-80
[4] = dose: 25.0 mg/kg/injection, schedule: Q01DX009 (ip), vehicle: Klucel (hydroxypropylcellulose) (HPC)
[5] = dose: 50.0 mg/kg/injection, schedule: Q01DX009 (ip), vehicle: Klucel (hydroxypropylcellulose) (HPC)

O=C1c2ccccc2C(=O)c2c(NCCN3CCNCC3)ccc(NCCN3CCNCC3)c21
T/C (dose: 8.0 mg/kg/injection, schedule: Q01DX009 (ip), vehicle: acid diluted with saline): 106 % of control
T/C (dose: 16.0 mg/kg/injection, schedule: Q01DX009 (ip), vehicle: acid diluted with saline): 104 % of control
T/C (dose: 32.0 mg/kg/injection, schedule: Q01DX009 (ip), vehicle: acid diluted with saline): 104 % of control
T/C (dose: 64.0 mg/kg/injection, schedule: Q01DX009 (ip), vehicle: acid diluted with saline): 96 % of control

CC(=O)NC(CCC(=O)C=[N+]=N)C(=O)O (stereo unspecified)
T/C (dose: 0.01 mg/kg/injection, schedule: Q01DX009 (ip), vehicle: water): 113 % of control
T/C (dose: 0.05 mg/kg/injection, schedule: Q01DX009 (ip), vehicle: water): 102 % of control
T/C (dose: 0.1 mg/kg/injection, schedule: Q01DX009 (ip), vehicle: other): 106 % of control
T/C (dose: 0.1 mg/kg/injection, schedule: Q01DX009 (ip), vehicle: water): 86 % of control
T/C (dose: 0.2 mg/kg/injection, schedule: Q01DX009 (ip), vehicle: other): 90 % of control
T/C (dose: 10.0 mg/kg/injection, schedule: Q04DX003 (ip), vehicle: other): 109 % of control
T/C (dose: 15.0 mg/kg/injection, schedule: Q04DX003 (ip), vehicle: water): 123 % of control
T/C (dose: 20.0 mg/kg/injection, schedule: Q04DX003 (ip), vehicle: other): 100 % of control
T/C (dose: 30.0 mg/kg/injection, schedule: Q04DX003 (ip), vehicle: water): 121 % of control
T/C (dose: 40.0 mg/kg/injection, schedule: Q04DX003 (ip), vehicle: other): 106 % of control
T/C (dose: 60.0 mg/kg/injection, schedule: Q04DX003 (ip), vehicle: water): 118 % of control

Nc1ccccc1SC1CC(=O)N(c2cccc(Cl)c2)C1=O (stereo unspecified)
T/C [1]: 95 % of control
T/C [2]: 90 % of control

CCc1cccc[n+]1[O-]
T/C [3]: 96 % of control
T/C (dose: 600.0 mg/kg/injection, schedule: Q01DX009 (ip), vehicle: saline with Tween-80): 96 % of control

COC12[C@@H]3N[C@@H]3CN1C1=C(C(=O)C(NCCSSCCNC3=C(C)C(=O)C4=C(C3=O)C(COC(N)=O)[C@]3(OC)C5N[C@@H]5CN43)=C(C)C1=O)[C@@H]2COC(N)=O (stereo partly specified)
T/C (dose: 0.2 mg/kg/injection, schedule: Q04DX003 (ip), vehicle: other): 168 % of control
T/C (dose: 0.4 mg/kg/injection, schedule: Q04DX003 (ip), vehicle: other): 241 % of control
T/C (dose: 0.8 mg/kg/injection, schedule: Q04DX003 (ip), vehicle: other): 295 % of control
T/C (dose: 1.5 mg/kg/injection, schedule: Q04DX003 (ip), vehicle: saline with Tween-80): 184 % of control
T/C (dose: 1.6 mg/kg/injection, schedule: Q04DX003 (ip), vehicle: other): 295 % of control
T/C (dose: 3.0 mg/kg/injection, schedule: Q04DX003 (ip), vehicle: saline with Tween-80): 197 % of control
T/C (dose: 3.2 mg/kg/injection, schedule: Q04DX003 (ip), vehicle: other): 295 % of control
T/C (dose: 6.0 mg/kg/injection, schedule: Q04DX003 (ip), vehicle: saline with Tween-80): 288 % of control
T/C (dose: 6.4 mg/kg/injection, schedule: Q04DX003 (ip), vehicle: other): 295 % of control
T/C (dose: 12.0 mg/kg/injection, schedule: Q04DX003 (ip), vehicle: saline with Tween-80): 288 % of control

COC1=C2CC(C)CC(OC)C(O)C(C)/C=C(\C)C(OC(N)=O)C(OC)/C=C\C=C(/C)C(=O)NC(=C(/C=N/N3CCCCC3)C1=O)C2=O (stereo unspecified)
T/C (dose: 12.5 mg/kg/injection, schedule: Q01DX005 (ip), vehicle: other): 101 % of control
T/C (dose: 25.0 mg/kg/injection, schedule: Q01DX005 (ip), vehicle: other): 98 % of control
T/C (dose: 50.0 mg/kg/injection, schedule: Q01DX005 (ip), vehicle: other): 97 % of control
T/C (dose: 100.0 mg/kg/injection, schedule: Q01DX005 (ip), vehicle: other): 88 % of control
T/C (dose: 200.0 mg/kg/injection, schedule: Q01DX005 (ip), vehicle: other): 97 % of control

COc1cccc(/C=N\N=C\c2cccc(OC)c2OC)c1OC
T/C (dose: 6.25 mg/kg/injection, schedule: Q01DX009 (ip), vehicle: saline): 95 % of control
T/C (dose: 12.5 mg/kg/injection, schedule: Q01DX009 (ip), vehicle: saline): 97 % of control

O=C1NC(=O)/C(=C/C=C/c2ccccc2)S1
T/C (dose: 12.5 mg/kg/injection, schedule: Q01DX009 (ip), vehicle: saline with Tween-80): 99 % of control and 114 % of control
T/C (dose: 25.0 mg/kg/injection, schedule: Q01DX009 (ip), vehicle: saline with Tween-80): 97 % of control and 115 % of control
T/C (dose: 50.0 mg/kg/injection, schedule: Q01DX009 (ip), vehicle: saline with Tween-80): 99 % of control and 103 % of control
T/C (dose: 100.0 mg/kg/injection, schedule: Q01DX009 (ip), vehicle: saline with Tween-80): 99 % of control and 108 % of control
T/C (dose: 200.0 mg/kg/injection, schedule: Q01DX009 (ip), vehicle: saline with Tween-80): 114 % of control
T/C [3]: 98 % of control

CCO/C=C1\SC(=S)N(c2ccccc2OC)C1=O
T/C (dose: 12.5 mg/kg/injection, schedule: Q01DX009 (ip), vehicle: Klucel (hydroxypropylcellulose) (HPC)): 109 % of control
T/C [4]: 99 % of control and 117 % of control
T/C [5]: 107 % of control and 111 % of control
T/C [1]: 86 % of control and 107 % of control
T/C [2]: 111 % of control

COc1cc(C(=O)N=Nc2c(O)[nH]c3ccc(Br)cc23)cc(OC)c1OC
T/C [4]: 98 % of control
T/C [5]: 109 % of control
T/C [1]: 86 % of control

O=NN(CCCl)C(=O)NC1OC(CO)C(O)C(O)C1O (stereo unspecified)
T/C (dose: 0.16 mg/kg/injection, schedule: Q01DX009 (ip), vehicle: saline): 107 % of control
T/C (dose: 0.31 mg/kg/injection, schedule: Q01DX009 (ip), vehicle: saline): 111 % of control and 116 % of control
T/C (dose: 0.62 mg/kg/injection, schedule: Q01DX009 (ip), vehicle: saline): 108 % of control
T/C (dose: 1.25 mg/kg/injection, schedule: Q01DX009 (ip), vehicle: saline): 178 % of control
T/C (dose: 2.5 mg/kg/injection, schedule: Q01DX009 (ip), vehicle: saline): 188 % of control
T/C (dose: 5.0 mg/kg/injection, schedule: Q01DX009 (ip), vehicle: saline): 193 % of control
